pKi: −log10 of the molar value. Activity calls are given as the source filed them. No cut-off for these calls is given here.
How the values were obtained:
[1] = target: 5-hydroxytryptamine receptor 1B (Homo sapiens, UniProt P28222); assay: Inhibition of 5-HT1B receptor (unknown origin) by PDSP assay
[2] = target: D(4) dopamine receptor (Homo sapiens, UniProt P21917); assay: Inhibition of dopamine D4 receptor (unknown origin) by PDSP assay
[3] = target: D(2) dopamine receptor (Homo sapiens, UniProt P14416); assay: Inhibition of dopamine D2 receptor (unknown origin) by PDSP assay
Sequence of D(2) dopamine receptor (P14416 whole entry): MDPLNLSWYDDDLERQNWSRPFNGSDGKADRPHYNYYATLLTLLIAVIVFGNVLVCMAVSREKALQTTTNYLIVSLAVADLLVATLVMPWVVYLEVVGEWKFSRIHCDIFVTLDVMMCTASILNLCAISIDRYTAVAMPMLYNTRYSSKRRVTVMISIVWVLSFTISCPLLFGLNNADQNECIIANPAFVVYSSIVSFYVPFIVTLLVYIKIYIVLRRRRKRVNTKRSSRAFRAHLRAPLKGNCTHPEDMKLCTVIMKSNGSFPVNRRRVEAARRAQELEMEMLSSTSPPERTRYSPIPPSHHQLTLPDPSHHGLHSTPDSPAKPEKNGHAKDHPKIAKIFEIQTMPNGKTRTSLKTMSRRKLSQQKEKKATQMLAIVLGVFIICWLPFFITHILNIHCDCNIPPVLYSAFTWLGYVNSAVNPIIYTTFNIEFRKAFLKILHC

[4] = target: T1, Alpha-2A adrenergic receptor (Homo sapiens, UniProt P08913); assay: Inhibition of adrenergic alpha2A receptor (unknown origin) by PDSP assay
T1 sequence (P08913 whole entry): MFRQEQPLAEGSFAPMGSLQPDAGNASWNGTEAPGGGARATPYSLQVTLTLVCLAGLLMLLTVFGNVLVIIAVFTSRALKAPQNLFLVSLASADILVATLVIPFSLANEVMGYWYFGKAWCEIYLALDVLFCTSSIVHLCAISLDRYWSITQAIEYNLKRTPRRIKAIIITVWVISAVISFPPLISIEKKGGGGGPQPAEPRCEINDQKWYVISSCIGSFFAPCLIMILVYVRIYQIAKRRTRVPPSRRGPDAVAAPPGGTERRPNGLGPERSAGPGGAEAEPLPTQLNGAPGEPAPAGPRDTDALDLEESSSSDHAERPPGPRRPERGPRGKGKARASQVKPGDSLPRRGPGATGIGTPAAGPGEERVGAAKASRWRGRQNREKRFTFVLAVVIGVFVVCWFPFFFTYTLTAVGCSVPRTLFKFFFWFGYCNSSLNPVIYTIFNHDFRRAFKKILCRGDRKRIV

[5] = system: RAW264.7; assay: Neuroprotective activity in mouse RAW264.7 cells assessed as inhibition of LPS-stimulated nitric oxide release at 100 uM after 20 to 24 hrs by Griess assay relative to control; type: functional
[6] = target: 5-hydroxytryptamine receptor 5A (Homo sapiens, UniProt P47898); assay: Inhibition of 5-HT5A receptor (unknown origin) by PDSP assay
Sequence of 5-hydroxytryptamine receptor 5A (P47898 whole entry): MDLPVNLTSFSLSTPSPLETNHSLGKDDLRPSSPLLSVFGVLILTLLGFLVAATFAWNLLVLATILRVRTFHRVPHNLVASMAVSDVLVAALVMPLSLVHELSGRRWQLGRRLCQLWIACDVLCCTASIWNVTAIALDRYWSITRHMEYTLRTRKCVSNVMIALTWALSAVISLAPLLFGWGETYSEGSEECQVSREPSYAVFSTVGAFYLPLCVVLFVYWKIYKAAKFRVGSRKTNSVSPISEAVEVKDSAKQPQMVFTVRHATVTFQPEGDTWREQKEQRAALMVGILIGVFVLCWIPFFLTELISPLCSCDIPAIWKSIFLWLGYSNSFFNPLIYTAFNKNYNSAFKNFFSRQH

[7] = system: RAW264.7; assay: Neuroprotective activity in mouse RAW264.7 cells assessed as inhibition of LPS-stimulated nitric oxide release at 75 uM after 20 to 24 hrs by Griess assay relative to control; type: functional
[8] = species: Homo sapiens; assay: Inhibition of NMDA receptor PCP binding site (unknown origin) at 10 uM by PDSP assay relative to control
[9] = target: 5-hydroxytryptamine receptor 7 (Homo sapiens, UniProt P34969); assay: Inhibition of 5-HT7 receptor (unknown origin) by PDSP assay
Sequence of 5-hydroxytryptamine receptor 7 (P34969 whole entry): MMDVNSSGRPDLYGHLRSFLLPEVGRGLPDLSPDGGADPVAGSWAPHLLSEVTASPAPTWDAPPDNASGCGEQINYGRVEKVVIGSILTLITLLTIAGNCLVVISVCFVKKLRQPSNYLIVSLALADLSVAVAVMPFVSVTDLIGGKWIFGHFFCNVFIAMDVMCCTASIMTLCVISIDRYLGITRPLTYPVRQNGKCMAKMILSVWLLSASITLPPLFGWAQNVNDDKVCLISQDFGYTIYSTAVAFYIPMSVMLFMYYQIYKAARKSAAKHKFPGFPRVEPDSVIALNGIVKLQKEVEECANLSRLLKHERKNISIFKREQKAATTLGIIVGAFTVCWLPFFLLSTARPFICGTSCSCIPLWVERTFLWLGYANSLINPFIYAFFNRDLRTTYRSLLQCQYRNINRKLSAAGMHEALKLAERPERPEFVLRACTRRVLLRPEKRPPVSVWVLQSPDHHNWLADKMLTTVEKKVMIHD

[10] = target: 5-hydroxytryptamine receptor 2B (Homo sapiens, UniProt P41595); assay: Inhibition of 5-HT2B receptor (unknown origin) by PDSP assay
Sequence of 5-hydroxytryptamine receptor 2B (P41595 whole entry): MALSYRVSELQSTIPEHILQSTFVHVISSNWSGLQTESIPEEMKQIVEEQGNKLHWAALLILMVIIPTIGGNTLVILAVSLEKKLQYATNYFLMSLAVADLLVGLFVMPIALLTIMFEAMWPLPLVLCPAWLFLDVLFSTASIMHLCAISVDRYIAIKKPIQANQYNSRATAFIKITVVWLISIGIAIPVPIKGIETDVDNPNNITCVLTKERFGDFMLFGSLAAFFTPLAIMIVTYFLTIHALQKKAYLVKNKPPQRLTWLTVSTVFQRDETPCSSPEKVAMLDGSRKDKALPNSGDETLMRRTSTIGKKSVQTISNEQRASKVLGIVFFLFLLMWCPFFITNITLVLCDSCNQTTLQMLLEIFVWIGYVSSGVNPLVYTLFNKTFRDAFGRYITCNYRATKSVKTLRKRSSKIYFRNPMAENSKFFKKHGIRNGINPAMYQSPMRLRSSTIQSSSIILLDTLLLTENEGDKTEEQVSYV

[11] = target: Histamine H3 receptor (Homo sapiens, UniProt Q9Y5N1); assay: Inhibition of histamine H3 receptor (unknown origin) by PDSP assay
Sequence of Histamine H3 receptor (Q9Y5N1 whole entry): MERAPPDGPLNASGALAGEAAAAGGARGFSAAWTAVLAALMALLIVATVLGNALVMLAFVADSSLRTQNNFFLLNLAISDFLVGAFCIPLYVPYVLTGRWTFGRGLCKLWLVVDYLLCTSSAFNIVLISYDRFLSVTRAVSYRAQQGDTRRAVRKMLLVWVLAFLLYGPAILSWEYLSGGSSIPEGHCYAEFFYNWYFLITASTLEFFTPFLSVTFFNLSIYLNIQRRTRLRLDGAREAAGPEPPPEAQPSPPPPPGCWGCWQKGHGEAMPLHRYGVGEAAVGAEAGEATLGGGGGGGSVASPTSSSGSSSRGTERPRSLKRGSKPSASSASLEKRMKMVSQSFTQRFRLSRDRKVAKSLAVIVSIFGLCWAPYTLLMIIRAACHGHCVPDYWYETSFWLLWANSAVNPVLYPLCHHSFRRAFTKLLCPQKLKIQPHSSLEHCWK

[12] = target: Sodium-dependent noradrenaline transporter (Homo sapiens, UniProt P23975); assay: Displacement of [3H]-nisoxetine from human NET expressed in HEK cell membranes; design: species or system HEK293
Sequence of Sodium-dependent noradrenaline transporter (P23975 whole entry): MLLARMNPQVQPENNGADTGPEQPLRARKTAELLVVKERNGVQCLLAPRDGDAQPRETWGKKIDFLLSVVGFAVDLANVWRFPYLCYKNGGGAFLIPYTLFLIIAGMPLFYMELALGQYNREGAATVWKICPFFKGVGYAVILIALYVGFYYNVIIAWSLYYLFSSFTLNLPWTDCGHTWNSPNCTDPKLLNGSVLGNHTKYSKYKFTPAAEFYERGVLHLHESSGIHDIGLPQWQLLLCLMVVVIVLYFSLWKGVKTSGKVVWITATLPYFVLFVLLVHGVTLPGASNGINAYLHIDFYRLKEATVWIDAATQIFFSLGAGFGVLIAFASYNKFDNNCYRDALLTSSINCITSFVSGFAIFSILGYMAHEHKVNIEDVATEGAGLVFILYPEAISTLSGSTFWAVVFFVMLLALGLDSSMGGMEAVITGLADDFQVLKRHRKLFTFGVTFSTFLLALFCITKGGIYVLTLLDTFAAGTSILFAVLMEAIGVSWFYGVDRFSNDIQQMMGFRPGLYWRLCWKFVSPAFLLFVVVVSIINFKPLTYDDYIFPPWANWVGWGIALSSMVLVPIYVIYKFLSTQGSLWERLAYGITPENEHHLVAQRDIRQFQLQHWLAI

[13] = target: 5-hydroxytryptamine receptor 1A (Homo sapiens, UniProt P08908); assay: Inhibition of 5-HT1A receptor (unknown origin) by PDSP assay
Sequence of 5-hydroxytryptamine receptor 1A (P08908 whole entry): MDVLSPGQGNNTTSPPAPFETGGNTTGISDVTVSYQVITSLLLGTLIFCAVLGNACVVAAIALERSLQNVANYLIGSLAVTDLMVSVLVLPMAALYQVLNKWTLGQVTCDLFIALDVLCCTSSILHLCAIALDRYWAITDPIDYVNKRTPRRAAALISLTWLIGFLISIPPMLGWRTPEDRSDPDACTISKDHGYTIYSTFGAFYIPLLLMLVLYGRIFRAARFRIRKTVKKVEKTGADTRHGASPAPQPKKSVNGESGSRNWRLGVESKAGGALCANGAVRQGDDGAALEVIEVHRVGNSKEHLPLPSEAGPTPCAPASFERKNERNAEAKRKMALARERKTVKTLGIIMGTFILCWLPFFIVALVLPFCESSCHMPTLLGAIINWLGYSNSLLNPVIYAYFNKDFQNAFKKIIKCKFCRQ

[14] = target: 5-hydroxytryptamine receptor 6 (Homo sapiens, UniProt P50406); assay: Inhibition of 5-HT6 receptor (unknown origin) by PDSP assay
Sequence of 5-hydroxytryptamine receptor 6 (P50406 whole entry): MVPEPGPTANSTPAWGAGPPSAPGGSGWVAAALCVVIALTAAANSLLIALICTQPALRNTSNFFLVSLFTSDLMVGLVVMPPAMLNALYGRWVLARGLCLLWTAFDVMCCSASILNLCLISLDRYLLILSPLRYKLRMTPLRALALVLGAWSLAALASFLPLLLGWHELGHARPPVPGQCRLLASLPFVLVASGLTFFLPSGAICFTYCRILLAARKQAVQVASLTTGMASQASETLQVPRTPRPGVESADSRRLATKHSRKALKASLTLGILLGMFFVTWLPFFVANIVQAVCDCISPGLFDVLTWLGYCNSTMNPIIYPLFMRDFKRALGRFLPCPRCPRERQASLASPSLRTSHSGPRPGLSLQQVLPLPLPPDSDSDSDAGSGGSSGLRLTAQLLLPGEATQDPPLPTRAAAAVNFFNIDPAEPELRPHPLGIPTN

[15] = target: Histamine H4 receptor (Homo sapiens, UniProt Q9H3N8); assay: Inhibition of histamine H4 receptor (unknown origin) by PDSP assay
[16] = Inhibition of rat brain BZP receptor by PDSP assay
[17] = system: RAW264.7; assay: Neuroprotective activity in mouse RAW264.7 cells assessed as inhibition of LPS-stimulated nitric oxide release up to 100 uM after 20 to 24 hrs by Griess assay; type: functional, cell-based
[18] = Inhibition of Ca2+ channel (unknown origin) by PDSP assay; design: species or system Homo sapiens
[19] = target: Mu-type opioid receptor (Homo sapiens, UniProt P35372); assay: Inhibition of mu opioid receptor (unknown origin) by PDSP assay
[20] = target: Delta-type opioid receptor (Homo sapiens, UniProt P41143); assay: Inhibition of delta opioid receptor (unknown origin) by PDSP assay
Sequence of Delta-type opioid receptor (P41143 whole entry): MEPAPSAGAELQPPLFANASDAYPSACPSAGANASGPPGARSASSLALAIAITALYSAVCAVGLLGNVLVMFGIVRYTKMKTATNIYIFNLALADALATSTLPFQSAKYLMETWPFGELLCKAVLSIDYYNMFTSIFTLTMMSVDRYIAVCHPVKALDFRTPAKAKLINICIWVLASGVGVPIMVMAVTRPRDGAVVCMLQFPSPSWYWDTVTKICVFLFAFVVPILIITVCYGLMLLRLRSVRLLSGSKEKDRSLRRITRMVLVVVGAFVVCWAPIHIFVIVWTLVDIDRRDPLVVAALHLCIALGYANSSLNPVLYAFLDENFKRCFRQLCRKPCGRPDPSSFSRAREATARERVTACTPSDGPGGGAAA

Sequence of D(4) dopamine receptor (P21917 whole entry): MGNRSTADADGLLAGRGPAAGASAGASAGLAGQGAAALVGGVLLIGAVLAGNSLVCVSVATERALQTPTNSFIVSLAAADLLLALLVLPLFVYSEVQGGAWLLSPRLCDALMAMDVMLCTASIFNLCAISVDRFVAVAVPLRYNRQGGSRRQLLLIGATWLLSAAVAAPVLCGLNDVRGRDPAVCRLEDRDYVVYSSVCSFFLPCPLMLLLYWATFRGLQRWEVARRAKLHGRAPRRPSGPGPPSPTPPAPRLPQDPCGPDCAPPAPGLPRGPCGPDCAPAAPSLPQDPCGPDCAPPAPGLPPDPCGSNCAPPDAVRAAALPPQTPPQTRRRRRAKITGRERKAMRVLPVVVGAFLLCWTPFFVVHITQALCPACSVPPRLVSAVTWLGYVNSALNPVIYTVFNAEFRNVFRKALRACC
Sequence of 5-hydroxytryptamine receptor 1B (P28222 whole entry): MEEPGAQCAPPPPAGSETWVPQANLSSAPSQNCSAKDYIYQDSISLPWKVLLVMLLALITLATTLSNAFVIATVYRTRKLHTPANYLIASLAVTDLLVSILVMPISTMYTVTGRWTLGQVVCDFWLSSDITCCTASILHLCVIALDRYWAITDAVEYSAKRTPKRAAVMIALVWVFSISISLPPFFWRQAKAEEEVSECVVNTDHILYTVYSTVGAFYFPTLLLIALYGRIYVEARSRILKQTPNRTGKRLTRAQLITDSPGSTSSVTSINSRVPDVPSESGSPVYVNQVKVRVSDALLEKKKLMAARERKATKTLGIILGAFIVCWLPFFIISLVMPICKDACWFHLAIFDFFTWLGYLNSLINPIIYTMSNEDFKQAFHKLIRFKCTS

c1ccc(CCN[C@H]2C3C4CC5C6C4CC3C6C52)cc1 (some centres not stated)
pKi [1]: < 5.00
pKi [2]: < 5.00
pKi [3]: < 5.00
pKi [4]: < 5.00
inhibition at 100 µM [5]: 17.5%

C1C2C3CC4C2C2C1C3[C@H](NCC13C5C6C7C5C1C7C63)C42 (some centres not stated)
pKi [6]: 5.12
pKi [3]: 5.25

CN(CC1CCCCC1)[C@H]1C2C3CC4C5C3CC2C5C41 (some centres not stated)
inhibition at 75 µM [7]: 88.3%

CN(Cc1ccccc1)[C@H]1C2C3CC4C2C(=O)C2C4C3C21 (some centres not stated)
inhibition [8]: < 50%

CN(CCc1ccccc1)[C@H]1C2C3CC4C5C3CC2C5C41 (some centres not stated)
pKi [9]: 5.35
pKi [10]: 5.57
pKi [3]: 5.29

CN(CCCc1cccc(F)c1)[C@H]1C2C3CC4C2C(=O)C2C4C3C21 (some centres not stated)
pKi [11]: 5.69
pKi [4]: < 5.00
pKi [12]: 5.07

CN(Cc1cccc(F)c1)[C@H]1C2C3CC4C2C(=O)C2C4C3C21 (some centres not stated)
pKi [13]: < 5.00

COc1ccc(CN[C@H]2C3C4CC5C6C4CC3C6C52)cc1OC (some centres not stated)
pKi [14]: < 5.00
pKi [4]: 5.28

c1ccc(CCN[C@H]2C3C4CC5C6C4CC3C6C52)nc1 (some centres not stated)
pKi [14]: < 5.00
pKi [15]: < 5.00
pKi [2]: < 5.00
pKi [3]: 5.00

CN(Cc1ccc2c(c1)OCO2)[C@H]1C2C3CC4C5C3CC2C5C41 (some centres not stated)
pKi [16]: 5.31

COc1cc(CN[C@H]2C3C4CC5C6C4CC3C6C52)cc(OC)c1OC (some centres not stated)
pKi [10]: 5.71
inhibition [17]: inactive

c1ccc(CN[C@H]2C3C4CC5C6C4CC3C6C52)cc1 (some centres not stated)
pKi [18]: 5.44
inhibition [17]: inactive

COc1ccc(CN(C)[C@H]2C3C4CC5C3C(=O)C3C5C4C32)cc1OC (some centres not stated)
pKi [4]: < 5.00

CN(CCc1ccccn1)[C@H]1C2C3CC4C5C3CC2C5C41 (some centres not stated)
pKi [19]: 5.67
pKi [20]: 5.55

c1cc2c(cc1CN[C@H]1C3C4CC5C6C4CC3C6C51)OCO2 (some centres not stated)
pKi [6]: 5.22
pKi [12]: 5.13

Reference: ChEMBL document CHEMBL2429832, “N-substituted 8-aminopentacyclo[5.4.0.0(2,6).0(3,10).0(5,9)]undecanes as σ receptor ligands with potential neuroprotective effects” (Bioorg Med Chem, 2013)
